For orientation: clearance means the volume of plasma or blood freed of the substance per unit of time. Broadly, the Vd is a proportionality between amount in the body and measured concentration, not a real space. One may read the half-life as the time needed for the level to fall by half in the phase considered. By bioavailability is commonly meant the share of a dose that reaches the circulation, judged against a reference dose that is usually intravenous.

From patent publication US7879835B2 (Korea Research Institute of Chemical Technology, priority 2004, dated 2011) come the findings set out here.

Where two headings read alike, the source gives them in different places. Some results are limits rather than exact numbers.

Series [1] can be described thus: In vivo pharmacokinetics using female mice (serum concentration, HPLC). The conditions noted are these: for clearance: read-out: CL (clearance) (converted); for Half-life: read-out: Half-life (converted); for Vd: read-out: Vd (volume of distribution). As to the method:
Female mice each weighing […] were divided into groups of 5 mice each. The mice were anesthetized with ether, catheterized in their femoral artery and vein, respectively, and administered with 0.5 mg/kg body weight of compounds 234 and 274, and 5 mg/kg body weight of compounds 388, 404 and 415, respectively, via intravenous injection. Alternatively, 15 mg/kg body weight of compound 274 and 10 mg/kg body weight of compound 234 were orally administered to the mice.
At 0, 5, 10, 15 and 30 minutes and 1, 2, 4, 6, 9 and 12 hours after the intravenous injection, or at 0, 10, 20 and 40 minutes and 1, 2, 4, 6, 9 and 12 hours after the oral administration, 0.3 ml blood samples were taken from the mice through femoral artery. The blood samples were kept on an ice bath for 30 minutes and centrifuged at 3,000 rpm for 10 minutes to obtain a supernatant (serum). The supernatant samples were stored at −20° C.
Standard solution: Compounds 234, 274, 388, 404 and 415 were respectively dissolved in methanol to a concentration of 1 mg/ml to obtain stock solutions. The stock solutions were diluted with methanol to obtain standard solutions having concentrations of 40, 20, 10, 2, 1, 0.5, 0.2, 0.05 and 0.02 μg/ml, respectively.
Standard calibration curve: A stand calibration curve was prepared by employing calibration concentrations of 0.002, 0.005, 0.02, 0.05, 0.1, 0.2, 1, 2 and 4 μg/ml.
10 μl each of the standard solutions prepared above was added to 100 μl of normal serum sample and diluted 10 times. 250 μl of acetonitrile was added to the resulting dilution and the mixture was centrifuged for 10 minutes to obtain a supernatant. 300 μl of the supernatant was dried by evaporation under a nitrogen atmosphere and reconstituted by adding 50 μl of methanol. 20 μl of the resulting solution was analyzed by HPLC to prepare a standard calibration curve. HPLC was performed with Shimadzu ODS2 column (4.6×250 mm, 5 μm by employing a mixture of methanol/water (90/10 (v/v)) as the mobile phase at a flow rate of 1.2 ml/min, and measuring the absorbance at 240 nm.
Extraction: 100 μl of the serum sample obtained in (4-2-1) was put into a 1 ml microtube and 10 μl of methanol was added thereto. 250 μl of acetonitrile was added to the microtube and the mixture was centrifuged for 10 minutes to obtain a supernatant. 300 μl of the supernatant was dried by evaporation under a nitrogen atmosphere and reconstituted by adding 50 μl of methanol. 20 μl of the resulting solution was analyzed by the HPLC method as above.
Average concentrations of the compounds in the serum samples were plotted in a semi-log scale against the time lapsed after the administration, and the pharmacokinetic parameters were determined as a non-compartment open model by employing WinNonlin® program (Pharsight Corporation).

Series [2] concerns osteoclast (TRAP-positive multinuclear cell) formation. Briefly: Inhibitory effect on osteoclast formation (TRAP staining). It counts as cell-based, mice. The conditions noted are these: Mus musculus, Osteoclast, compared to control, read-out: Osteoclast formation inhibitory effects (%). The gist of the method:
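Non-adherent bone marrow cells from 7–9-week-old female mice, 2×10^5 per well, cultured 8 days with M-CSF (20 ng/ml), RANKL (30 ng/ml) and compound at 0.3, 1.0 or 3 μM. Formation scored by TRAP staining after fixation, 1 h at 37 °C, pH 5.0.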

A short description of series [3]: In vitro pharmacokinetics: metabolic stability in liver microsome. The format is in vitro ADME. The conditions noted are these: human liver microsome 1 mg/ml, 20 μM compound; for half-life at 20 µM: liver microsomes. As to the method: Metabolic stabilities of the compounds of the Examples were examined by employing microsome samples prepared from the human liver.
Each 20 μM of the compounds were reacted with 1 mg/ml of liver microsome and the half-lives and one-hour stabilities of the compounds were determined.
On the technique in general: Liver microsomes are vesicles of endoplasmic reticulum, rich in cytochrome P450 enzymes.

As for `CO/C=C(/C(=O)OC)c1ccccc1COc1cccc(N2CCCCC2)c1` [Compound No. 388, (E)-methyl-2-[2-((3-(piperidin-1-yl)phenoxy)methyl)phenyl]-3-methoxyacrylate], the “AUC (area under the curve of blood concentration versus time)” value in series [1] (I.V.) was found to be 112600 ± 13000 ng·h/mL. Besides, in series [1] (mouse, serum, iv, I.V.), the clearance was 0.0483 mL/min, the Half-life is 7.3 ± 1.2 h and the Vd was found to be 0.0274 ± 0.002 L/kg. The inhibition at 0.1 µM in series [2] (0.1 μM (Table 4b)) came out at 0%. Besides, the inhibition at 0.3 µM in series [2] (0.3 μM (Table 4b)) was 99%. In addition, the inhibition at 1 µM in series [2] (1 μM (Table 4b)) was found to be 100%. Also, the inhibition at 3 µM in series [2] (3 μM (Table 4b)) stood at 100%. The molecule also had a half-life at 20 µM in series [3] of 0.512 h.

On to `CO/C=C(/C(=O)OC)c1ccc(Cl)cc1COc1ccc(OCCOC)cc1` [Compound No. 274, (E)-methyl-2-(2-((4-(2-methoxyethoxy)phenoxy)methyl)-4-chlorophenyl)-3-methoxyacrylate], for which, in series [1] (I.V.), the “AUC (area under the curve of blood concentration versus time)” value turned out to be 47200 ± 25800 ng·h/mL. Also, in series [1] (Oral), the “AUC (area under the curve of blood concentration versus time)” value came out at 80600 ± 45400 ng·h/mL, the “CL (clearance)” value was 7.5 ± 3.4 mL/h and the “Vd (volume of distribution)” value was determined as 0.0434 ± 0.0468 L/kg. Moreover, in series [1] (mouse, serum, 15 mg/kg, Oral), the Half-life is 4.2 ± 3.7 h. Moreover, the bioavailability in series [1] (mouse, serum, 15 mg/kg, oral versus I.V., read-out: Bioavailability) amounted to 8.5%. For the same molecule, in series [1] (mouse, serum, iv, I.V.), the clearance is 0.238 mL/min, the Half-life was 3.5 ± 2.3 h and the Vd is 0.0503 ± 0.0098 L/kg. For the same molecule, in series [2] (192 h, 0.3 μM, 8 days culture with M-CSF and RANKL), the inhibition at 0.3 µM turned out to be 100%. In series [2] (192 h, 1.0 μM, 8 days culture with M-CSF and RANKL), the inhibition at 1 µM stood at 100%. The inhibition at 3 µM in series [2] (192 h, 3.0 μM, 8 days culture with M-CSF and RANKL) was 100%. In addition, in series [3], the One-hour stability was 72% and the half-life at 20 µM was greater than 3 h.
